From PubChem BioAssay (NCI)
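These data come from cells grown in 96-well plates and exposed to compound for 48 hours at five concentrations. GI50 = concentration required for 50% inhibition of growth. The concentration for full growth arrest is given as TGI.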

How the values were obtained:
Assay in all cases: NCI-60 cell line screen, 48 h
786-0 renal = test system: 786-0 renal
A498 renal = test system: A498 renal
A549 NSCLC = test system: A549 NSCLC
ACHN renal = test system: ACHN renal
BT-549 breast = test system: BT-549 breast
CAKI-1 renal = test system: CAKI-1 renal
CCRF-CEM leukemia = test system: CCRF-CEM leukemia
COLO 205 colon = test system: COLO 205 colon
DU-145 prostate = test system: DU-145 prostate
EKVX NSCLC = test system: EKVX NSCLC
HCC-2998 colon = test system: HCC-2998 colon
HCT-116 colon = test system: HCT-116 colon
HCT-15 colon = test system: HCT-15 colon
HL-60(TB) leukemia = test system: HL-60(TB) leukemia
HOP-62 NSCLC = test system: HOP-62 NSCLC
HOP-92 NSCLC = test system: HOP-92 NSCLC
HS 578T breast = test system: HS 578T breast
HT29 colon = test system: HT29 colon
IGROV1 ovarian = test system: IGROV1 ovarian
K-562 leukemia = test system: K-562 leukemia
KM12 colon = test system: KM12 colon
LOX IMVI melanoma = test system: LOX IMVI melanoma
M14 melanoma = test system: M14 melanoma
MALME-3M melanoma = test system: MALME-3M melanoma
MCF7 breast = test system: MCF7 breast
MDA-MB-231 breast = test system: MDA-MB-231 breast
MDA-MB-435 = test system: MDA-MB-435
MOLT-4 leukemia = test system: MOLT-4 leukemia
NCI-H226 lung = test system: NCI-H226 lung
NCI-H23 lung = test system: NCI-H23 lung
NCI-H460 lung = test system: NCI-H460 lung
NCI-H522 lung = test system: NCI-H522 lung
NCI/ADR-RES ovarian = test system: NCI/ADR-RES ovarian
OVCAR-3 ovarian = test system: OVCAR-3 ovarian
OVCAR-4 ovarian = test system: OVCAR-4 ovarian
OVCAR-5 ovarian = test system: OVCAR-5 ovarian
OVCAR-8 ovarian = test system: OVCAR-8 ovarian
PC-3 prostate = test system: PC-3 prostate
RPMI-8226 leukemia = test system: RPMI-8226 leukemia
RXF 393 renal = test system: RXF 393 renal
SF-268 CNS = test system: SF-268 CNS
SF-295 CNS = test system: SF-295 CNS
SF-539 CNS = test system: SF-539 CNS
SK-MEL-2 melanoma = test system: SK-MEL-2 melanoma
SK-MEL-28 melanoma = test system: SK-MEL-28 melanoma
SK-MEL-5 melanoma = test system: SK-MEL-5 melanoma
SK-OV-3 ovarian = test system: SK-OV-3 ovarian
SN12C renal = test system: SN12C renal
SNB-19 CNS = test system: SNB-19 CNS
SNB-75 CNS = test system: SNB-75 CNS
SR leukemia = test system: SR leukemia
SW-620 colon = test system: SW-620 colon
T-47D breast = test system: T-47D breast
TK-10 renal = test system: TK-10 renal
U251 CNS = test system: U251 CNS
UACC-257 melanoma = test system: UACC-257 melanoma
UACC-62 melanoma = test system: UACC-62 melanoma
UO-31 renal = test system: UO-31 renal
MDA-N = test system: MDA-N

O=C(OCc1ccc2ccccc2n1)c1cn(C2CC2)c2cc(N3CCN(Cc4ccc5ccccc5n4)CC3)c(F)cc2c1=O
GI50 (786-0 renal): > 49.2 µM | TGI (786-0 renal): > 68.4 µM | GI50 (A498 renal): 25.2 µM | TGI (A498 renal): > 82.1 µM | GI50 (A549 NSCLC): 98.2 µM | TGI (A549 NSCLC): > 100 µM | GI50 (ACHN renal): > 72.4 µM | TGI (ACHN renal): > 100 µM | GI50 (BT-549 breast): 23.1 µM | TGI (BT-549 breast): 68 µM | GI50 (CAKI-1 renal): 55.7 µM | TGI (CAKI-1 renal): > 100 µM | GI50 (CCRF-CEM leukemia): > 100 µM | TGI (CCRF-CEM leukemia): > 100 µM | GI50 (COLO 205 colon): 49.6 µM | TGI (COLO 205 colon): > 100 µM | GI50 (DU-145 prostate): 6.09 µM | TGI (DU-145 prostate): > 100 µM | GI50 (EKVX NSCLC): 29.6 µM | TGI (EKVX NSCLC): > 100 µM | GI50 (HCC-2998 colon): 34 µM | TGI (HCC-2998 colon): > 100 µM | GI50 (HCT-116 colon): > 53.2 µM | TGI (HCT-116 colon): > 95.3 µM | GI50 (HCT-15 colon): 62.6 µM | TGI (HCT-15 colon): > 100 µM | GI50 (HL-60(TB) leukemia): > 100 µM | TGI (HL-60(TB) leukemia): > 100 µM | GI50 (HOP-62 NSCLC): > 53.8 µM | TGI (HOP-62 NSCLC): > 95.2 µM | GI50 (HOP-92 NSCLC): > 100 µM | TGI (HOP-92 NSCLC): > 100 µM | GI50 (HS 578T breast): 40.6 µM | TGI (HS 578T breast): > 100 µM | GI50 (HT29 colon): 58.2 µM | TGI (HT29 colon): > 100 µM | GI50 (IGROV1 ovarian): > 93.2 µM | TGI (IGROV1 ovarian): > 100 µM | GI50 (K-562 leukemia): > 53.5 µM | TGI (K-562 leukemia): > 100 µM | GI50 (KM12 colon): 41.6 µM | TGI (KM12 colon): > 100 µM | GI50 (LOX IMVI melanoma): 29 µM | TGI (LOX IMVI melanoma): > 89.5 µM | GI50 (M14 melanoma): > 56.3 µM | TGI (M14 melanoma): 99.8 µM | GI50 (MALME-3M melanoma): 33.2 µM | TGI (MALME-3M melanoma): > 84.2 µM | GI50 (MCF7 breast): 35 µM | TGI (MCF7 breast): > 92.7 µM | GI50 (MDA-MB-231 breast): > 46.9 µM | TGI (MDA-MB-231 breast): > 84 µM | GI50 (MDA-MB-435): 39.4 µM | TGI (MDA-MB-435): > 100 µM | GI50 (MOLT-4 leukemia): > 100 µM | TGI (MOLT-4 leukemia): > 100 µM | GI50 (NCI-H226 lung): 22.1 µM | TGI (NCI-H226 lung): 91.6 µM | GI50 (NCI-H23 lung): 42.3 µM | TGI (NCI-H23 lung): > 88.6 µM | GI50 (NCI-H460 lung): 39.3 µM | TGI (NCI-H460 lung): > 100 µM | GI50 (NCI-H522 lung): > 94.3 µM | TGI (NCI-H522 lung): > 100 µM | GI50 (NCI/ADR-RES ovarian): 61.5 µM | TGI (NCI/ADR-RES ovarian): > 100 µM | GI50 (OVCAR-3 ovarian): 44.9 µM | TGI (OVCAR-3 ovarian): > 100 µM | GI50 (OVCAR-4 ovarian): > 100 µM | TGI (OVCAR-4 ovarian): > 100 µM | GI50 (OVCAR-5 ovarian): > 81.5 µM | TGI (OVCAR-5 ovarian): > 100 µM | GI50 (OVCAR-8 ovarian): 51.5 µM | TGI (OVCAR-8 ovarian): > 100 µM | GI50 (PC-3 prostate): > 44.6 µM | TGI (PC-3 prostate): > 80.2 µM | GI50 (RPMI-8226 leukemia): > 36.3 µM | TGI (RPMI-8226 leukemia): > 64.2 µM | GI50 (RXF 393 renal): 63.6 µM | TGI (RXF 393 renal): > 100 µM | GI50 (SF-268 CNS): > 62.5 µM | TGI (SF-268 CNS): > 100 µM | GI50 (SF-295 CNS): 35.2 µM | TGI (SF-295 CNS): > 100 µM | GI50 (SF-539 CNS): 21.2 µM | TGI (SF-539 CNS): 58 µM | GI50 (SK-MEL-2 melanoma): > 100 µM | TGI (SK-MEL-2 melanoma): > 100 µM | GI50 (SK-MEL-28 melanoma): 35.4 µM | TGI (SK-MEL-28 melanoma): > 100 µM | GI50 (SK-MEL-5 melanoma): 20.1 µM | TGI (SK-MEL-5 melanoma): 62.2 µM | GI50 (SK-OV-3 ovarian): > 80.7 µM | TGI (SK-OV-3 ovarian): > 100 µM | GI50 (SN12C renal): > 100 µM | TGI (SN12C renal): > 100 µM | GI50 (SNB-19 CNS): > 81.6 µM | TGI (SNB-19 CNS): > 100 µM | GI50 (SNB-75 CNS): 32 µM | TGI (SNB-75 CNS): > 66.6 µM | GI50 (SR leukemia): > 100 µM | TGI (SR leukemia): > 100 µM | GI50 (SW-620 colon): > 89.5 µM | TGI (SW-620 colon): > 100 µM | GI50 (T-47D breast): 12.9 µM | TGI (T-47D breast): > 100 µM | GI50 (TK-10 renal): 31.9 µM | TGI (TK-10 renal): > 74.6 µM | GI50 (U251 CNS): 56.7 µM | TGI (U251 CNS): > 100 µM | GI50 (UACC-257 melanoma): > 94.2 µM | TGI (UACC-257 melanoma): > 100 µM | GI50 (UACC-62 melanoma): 46.1 µM | TGI (UACC-62 melanoma): > 100 µM | GI50 (UO-31 renal): > 100 µM | TGI (UO-31 renal): > 100 µM

CSc1nc2c(c(=O)[nH]1)N=C(c1ccc([N+](=O)[O-])cc1)CC(c1ccccc1)N2 (stereo not drawn)
TGI (786-0 renal): > 100 µM | TGI (A498 renal): > 100 µM | TGI (A549 NSCLC): > 100 µM | TGI (ACHN renal): > 100 µM | TGI (BT-549 breast): > 100 µM | TGI (CAKI-1 renal): > 100 µM | TGI (CCRF-CEM leukemia): > 100 µM | TGI (COLO 205 colon): > 100 µM | TGI (DU-145 prostate): > 100 µM | TGI (EKVX NSCLC): > 100 µM | TGI (HCC-2998 colon): 57.7 µM | TGI (HCT-116 colon): 47.1 µM | TGI (HL-60(TB) leukemia): 39.7 µM | TGI (HOP-62 NSCLC): > 100 µM | TGI (HOP-92 NSCLC): > 100 µM | TGI (HT29 colon): 48 µM | TGI (IGROV1 ovarian): > 100 µM | TGI (K-562 leukemia): > 100 µM | TGI (KM12 colon): 33.2 µM | TGI (LOX IMVI melanoma): 92.4 µM | TGI (M14 melanoma): > 100 µM | TGI (MALME-3M melanoma): > 100 µM | TGI (MCF7 breast): 57.6 µM | TGI (MDA-MB-231 breast): 78.8 µM | TGI (MDA-MB-435): > 100 µM | TGI (MDA-N): > 100 µM | TGI (MOLT-4 leukemia): > 100 µM | TGI (NCI-H226 lung): > 100 µM | TGI (NCI-H23 lung): > 100 µM | TGI (NCI-H522 lung): > 100 µM | TGI (NCI/ADR-RES ovarian): > 100 µM | TGI (OVCAR-3 ovarian): > 100 µM | TGI (OVCAR-4 ovarian): > 100 µM | TGI (OVCAR-5 ovarian): > 100 µM | TGI (OVCAR-8 ovarian): > 100 µM | TGI (PC-3 prostate): > 100 µM | TGI (RPMI-8226 leukemia): 57.5 µM | TGI (RXF 393 renal): > 100 µM | TGI (SF-295 CNS): > 100 µM | TGI (SF-539 CNS): 76.2 µM | TGI (SK-MEL-2 melanoma): 88.5 µM | TGI (SK-MEL-28 melanoma): > 100 µM | TGI (SK-MEL-5 melanoma): 55.6 µM | TGI (SN12C renal): > 100 µM | TGI (SNB-19 CNS): > 100 µM | TGI (SNB-75 CNS): 74.7 µM | TGI (SR leukemia): > 100 µM | TGI (SW-620 colon): 91.7 µM | TGI (U251 CNS): > 100 µM | TGI (UACC-257 melanoma): > 100 µM | TGI (UACC-62 melanoma): > 100 µM | TGI (UO-31 renal): > 100 µM
